Results reported in patent publication US20050130968A1, “Fungicidal 4-(2-aminopyridin-4-yl)-N-phenyl-1,3,5-triazin-2-amine derivatives” (priority 2003, published 2005).

Assays:
Leptosphaeria nodorum = assay: Glume Blotch of Wheat 1-day protectant test (LEPTNO); assay type: in vivo; details: Parastagonospora nodorum, topical, 24 h; one-day protectant test, 200 ppm application rate, wheat plants (variety Yuma); read-out: LEPTINO control of disease
Protocol: The technical compounds were formulated at 200 ppm in 10 vol. acetone plus 90 vol. Triton X water (deionized water 99.99 wt. % +0.01 wt. Triton X100), giving a “formulated test compound.” The compounds were tested for ability to control plant diseases at the whole plant level in a 1-day protectant test (IDP). Formulated test compounds were applied to plants using a turn table sprayer fitted with two opposing air atomization nozzles which delivered approximately 1500 L/ha of spray volume. Plants were inoculated with spores of the fungus the next day, then incubated in an environment conducive to disease development. Disease severity was evaluated 4 to 19 days later, depending on the speed of disease development. Glume Blotch of Wheat (causal agent Leptosphaeria nodorum=Stagnospora nodorum; Bayer code […]): Wheat plants (variety Yuma) were grown from seed in a 50% pasteurized soil/50% soil-less mix until the seedlings had fully expanded first leaf. Each pot contains 3-20 seedlings. These plants were sprayed until wet with the formulated test compound at a rate of 200 ppm. On the following day, the leaves were inoculated with an aqueous spore suspension of Leptosphaeria nodorum and the plants were kept in high humidity (one day in a dark dew chamber followed by four to seven days in a lighted dew chamber) to permit spores to germinate and infect the leaf. The plants were then transferred to a greenhouse until disease developed on untreated control plants. The following table presents the activity of typical compounds of the present invention when evaluated in these experiments. The effectiveness of the test compounds in controlling disease was determined by assessing the severity of disease on treated plants, then converting the severity to percent control based on the level of disease on untreated, inoculated plants.

Puccinia triticina = assay: Leaf Rust of Wheat 1-day protectant test (PUCCRT); assay type: in vivo; details: topical, 24 h, one-day protectant test, 200 ppm application rate, wheat plants (variety Yuma), read-out: PUCCRT control of disease
Protocol: The technical compounds were formulated at 200 ppm in 10 vol. acetone plus 90 vol. Triton X water (deionized water 99.99 wt. % +0.01 wt. Triton X100), giving a “formulated test compound.” The compounds were tested for ability to control plant diseases at the whole plant level in a 1-day protectant test (IDP). Formulated test compounds were applied to plants using a turn table sprayer fitted with two opposing air atomization nozzles which delivered approximately 1500 L/ha of spray volume. Plants were inoculated with spores of the fungus the next day, then incubated in an environment conducive to disease development. Disease severity was evaluated 4 to 19 days later, depending on the speed of disease development. […] Each pot contained 3-8 seedlings. These plants were sprayed until wet with the formulated test compounds at a rate of 200 ppm. On the following day, the leaves were inoculated with an aqueous spore suspension of Puccinia triticina and the plants were kept in high humidity overnight to permit spores to germinate and infect the leaf. The plants were then transferred to a greenhouse until disease developed on untreated control plants. The following table presents the activity of typical compounds of the present invention when evaluated in these experiments. The effectiveness of the test compounds in controlling disease was determined by assessing the severity of disease on treated plants, then converting the severity to percent control based on the level of disease on untreated, inoculated plants.

Pyricularia oryzae = assay: whole plant or invertebrate; assay type: in vivo; details: topical, 24 h, read-out: PYRIOR control of disease
Septoria tritici = assay: Speckled Leaf Blotch of Wheat 1-day protectant test (SEPTTR); assay type: in vivo; details: Zymoseptoria tritici, topical, 24 h; one-day protectant test, 200 ppm application rate, wheat plants (variety Monon); read-out: SEPTTR control of disease
Protocol: The technical compounds were formulated at 200 ppm in 10 vol. acetone plus 90 vol. Triton X water (deionized water 99.99 wt. % +0.01 wt. Triton X100), giving a “formulated test compound.” The compounds were tested for ability to control plant diseases at the whole plant level in a 1-day protectant test (IDP). Formulated test compounds were applied to plants using a turn table sprayer fitted with two opposing air atomization nozzles which delivered approximately 1500 L/ha of spray volume. Plants were inoculated with spores of the fungus the next day, then incubated in an environment conducive to disease development. Disease severity was evaluated 4 to 19 days later, depending on the speed of disease development. Speckled Leaf Blotch of Wheat (Mycosphaerella graminicola=Septoria tritici; Bayer code […]): Wheat plants (variety Monon) were grown from seed in a greenhouse in 50% pasteurized soil/50% soil-less mix until the first true leaf was fully expanded, with 3-8 seedlings per pot. These plants were sprayed until wet with the formulated test compound at a rate of 200 ppm. On the following day, the leaves were inoculated with an aqueous spore suspension of Septoria tritici and the plants were kept in high humidity (one day in a dark dew chamber followed by four to seven days in a lighted dew chamber) to permit spores to germinate and infect the leaf. The plants were then transferred to a greenhouse until disease developed on untreated control plants. The following table presents the activity of typical compounds of the present invention when evaluated in these experiments. The effectiveness of the test compounds in controlling disease was determined by assessing the severity of disease on treated plants, then converting the severity to percent control based on the level of disease on untreated, inoculated plants.

Colletotricum lagenarium = assay: Cucumber Anthracnose 1-day protectant test (COLLLA); assay type: in vivo; details: Cucumis sativus, topical, 24 h; one-day protectant test, 200 ppm application rate, cucumber plants (variety Bush Champion); read-out: COLLLA control of disease
Protocol: The technical compounds were formulated at 200 ppm in 10 vol. acetone plus 90 vol. Triton X water (deionized water 99.99 wt. % +0.01 wt. Triton X100), giving a “formulated test compound.” The compounds were tested for ability to control plant diseases at the whole plant level in a 1-day protectant test (IDP). Formulated test compounds were applied to plants using a turn table sprayer fitted with two opposing air atomization nozzles which delivered approximately 1500 L/ha of spray volume. Plants were inoculated with spores of the fungus the next day, then incubated in an environment conducive to disease development. Disease severity was evaluated 4 to 19 days later, depending on the speed of disease development. Cucumber Anthracnose (causal agent Colletotricum lagenarium; Bayer code COLLLA): Cucumber plants (variety Bush Champion) were grown from seed in a soilless peat-based potting mixture (Metromix) until the first true leaf was 20-80% expanded. Each pot contained 1 seedling. These plants were sprayed until wet with the formulated test compound at a rate of 200 ppm. On the following day, the leaves were inoculated with an aqueous spore suspension of Colletotricum lagenarium and the plants were kept in high humidity for one day to permit spores to germinate and infect the leaf. The plants were then transferred to a growth chamber until disease developed on untreated control plants. The following table presents the activity of typical compounds of the present invention when evaluated in these experiments. The effectiveness of the test compounds in controlling disease was determined by assessing the severity of disease on treated plants, then converting the severity to percent control based on the level of disease on untreated, inoculated plants.

Cochliobolus sativus = assay: Spot Blotch of Wheat 1-day protectant test (COCHSA); assay type: in vivo; details: Bipolaris sorokiniana, 24 h; one-day protectant test, 200 ppm application rate, wheat plants (variety Yuma); read-out: COCHSA control of disease
Protocol: The technical compounds were formulated at 200 ppm in 10 vol. acetone plus 90 vol. Triton X water (deionized water 99.99 wt. % +0.01 wt. Triton X100), giving a “formulated test compound.” The compounds were tested for ability to control plant diseases at the whole plant level in a 1-day protectant test (IDP). Formulated test compounds were applied to plants using a turn table sprayer fitted with two opposing air atomization nozzles which delivered approximately 1500 L/ha of spray volume. Plants were inoculated with spores of the fungus the next day, then incubated in an environment conducive to disease development. Disease severity was evaluated 4 to 19 days later, depending on the speed of disease development. […] Each pot contained 3-8 seedlings. These plants were sprayed until wet with the formulated test compound at a rate of 200 ppm. On the following day, the leaves were inoculated with an aqueous spore suspension of Cochliobolus sativus and the plants were kept in high humidity for one to two days to permit spores to germinate and infect the leaf. The plants were then transferred to a greenhouse until disease developed on untreated control plants. The following table presents the activity of typical compounds of the present invention when evaluated in these experiments. The effectiveness of the test compounds in controlling disease was determined by assessing the severity of disease on treated plants, then converting the severity to percent control based on the level of disease on untreated, inoculated plants.

SMILES | pest or weed control at 200 ppm (Leptosphaeria nodorum) | pest or weed control at 200 ppm (Puccinia triticina) | pest or weed control at 200 ppm (Pyricularia oryzae) | pest or weed control at 200 ppm (Septoria tritici) | melting point | pest or weed control at 200 ppm (Colletotricum lagenarium) | pest or weed control at 200 ppm (Cochliobolus sativus)
COCC(C)Nc1cc(-c2ncnc(Nc3cccc(Cl)c3)n2)ccn1 (stereo not drawn) [Compound 1, N-(3-chlorophenyl)-4-{2-[(2-methoxy-1-methylethyl)amino]pyridin-4-yl}-1,3,5-triazin-2-amine] | 90 to 100% | 90 to 100% | 90 to 100% | 50 to 89% | 149 to 151 °C | 90 to 100% | 90 to 100%
COC[C@H](C)Nc1cc(-c2ncnc(Nc3cccc(Cl)c3)n2)ccn1 [Compound 2, N-(3-chlorophenyl)-4-(2-{[(1S)-2-methoxy-1-methylethyl]amino}pyridin-4-yl)-1,3,5-triazin-2-amine] | 90 to 100% | 90 to 100% | 90 to 100% | 90 to 100% | 152 to 156 °C | 90 to 100% | 90 to 100%
COCC(C)Nc1cc(-c2ncnc(Nc3ccccc3Cl)n2)ccn1 (stereo not drawn) [Compound 3, N-(2-chlorophenyl)-4-{2-[(2-methoxy-1-methylethyl)amino]pyridin-4-yl}-1,3,5-triazin-2-amine] | 21 to 49% | 50 to 89% | 50 to 89% | 21 to 49% | 139 to 140 °C | < 20% | 90 to 100%
COCC(C)Nc1cc(-c2ncnc(Nc3ccc(Cl)cc3)n2)ccn1 (stereo not drawn) [Compound 4, N-(4-chlorophenyl)-4-{2-[(2-methoxy-1-methylethyl)amino]pyridin-4-yl}-1,3,5-triazin-2-amine] | 50 to 89% | 50 to 89% | < 20% | 50 to 89% | 198 to 200 °C | < 20% | 50 to 89%
CC(C)(C)Nc1cc(-c2ncnc(Nc3cccc(Cl)c3)n2)ccn1 [Compound 5, 4-[2-(tert-butylamino)pyridin-4-yl]-N-(3-chlorophenyl)-1,3,5-triazin-2-amine] | 50 to 89% | 90 to 100% | 90 to 100% | 90 to 100% |  | 50 to 89% | 90 to 100%
CC(COCc1ccccc1)Nc1cc(-c2ncnc(Nc3cccc(Cl)c3)n2)ccn1 (stereo not drawn) [Compound 6, N-(3-chlorophenyl)-4-{2-[(2-(benzyloxy)-1-methylethyl)amino]pyridin-4-yl}-1,3,5-triazin-2-amine] | 50 to 89% | 90 to 100% | < 20% | 90 to 100% | 79 to 80 °C | < 20% | 50 to 89%
Clc1cccc(Nc2ncnc(-c3ccnc(N4CCCCC4)c3)n2)c1 [Compound 7, N-(3-chlorophenyl)-4-(2-piperidin-1-ylpyridin-4-yl)-1,3,5-triazin-2-amine] | 50 to 89% | 21 to 49% | < 20% | 50 to 89% | 168 to 169 °C | < 20% | 21 to 49%
Clc1ccc(Nc2ncnc(-c3ccnc(N4CCCCC4)c3)n2)cc1 [Compound 8, N-(4-chlorophenyl)-4-(2-piperidin-1-ylpyridin-4-yl)-1,3,5-triazin-2-amine] | 50 to 89% | < 20% | < 20% | 50 to 89% |  | < 20% | < 20%
CC1COC(=O)N1c1cc(-c2ncnc(Nc3cccc(Cl)c3)n2)ccn1 (stereo not drawn) [Compound 9] | 50 to 89% | 90 to 100% | 90 to 100% | 50 to 89% |  | 21 to 49% | 90 to 100%
